The values that follow come from ChEMBL document CHEMBL1201862, “PubChem BioAssay data set” (2004).

One may read the EC50 as the concentration at which the effect is half-maximal. In general, IC50 refers to the concentration that inhibits the measured activity by half. For orientation: AC50 means the concentration at which the activity in the assay is half-maximal. The term CC50 denotes the concentration that lowers cell viability or growth by half.

The target of assay [1] is Beta-2 adrenergic receptor (Homo sapiens, UniProt P07550). As to the kind of experiment: ADRB2 activation measured by internalization – cell-based, FAP fluorogen, flow cytometry, cherry pick 1, dose response (AID 588763). The assay is classed as functional. A general note: A flow cytometer gives signals particle by particle.
Beta-2 adrenergic receptor, sequence (P07550 whole entry): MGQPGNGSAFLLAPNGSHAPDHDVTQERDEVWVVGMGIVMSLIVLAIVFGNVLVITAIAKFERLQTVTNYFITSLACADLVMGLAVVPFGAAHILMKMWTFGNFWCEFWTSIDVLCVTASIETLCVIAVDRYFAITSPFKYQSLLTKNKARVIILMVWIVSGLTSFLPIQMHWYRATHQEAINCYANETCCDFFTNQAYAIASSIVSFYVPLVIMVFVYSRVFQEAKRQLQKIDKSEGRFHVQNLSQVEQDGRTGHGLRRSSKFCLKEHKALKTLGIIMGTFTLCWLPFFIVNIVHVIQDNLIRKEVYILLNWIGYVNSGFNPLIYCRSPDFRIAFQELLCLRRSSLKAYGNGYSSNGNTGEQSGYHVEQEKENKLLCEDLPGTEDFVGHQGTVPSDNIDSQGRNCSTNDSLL
Assay [2] concerns the target T1, Fatty acid synthase (Homo sapiens, UniProt P49327). As to the kind of experiment: inhibition of human FAS-TE enzyme activity – biochemical, kinetic fluorescence intensity, dose response (AID 624326).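 Note: rate of fluorescence rise from hydrolysis of a fluorogenic O-methyl fluorescein ester substrate.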 It is filed as functional.
Assay [3] addresses T1, Fatty acid synthase. As to the kind of experiment: inhibition of human FAS-TE enzyme activity – biochemical, endpoint fluorescence intensity, uHTS hits, dose response (AID 624327).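 Note: fluorescence from hydrolysis of an O-methyl fluorescein acyl ester substrate by the enzyme.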 It is filed as functional.
Assay [4] concerns HEK293. As to the kind of experiment: HEK293T cell viability loss, resazurin readout – resazurin fluorescence, cytotoxicity control for NF-kB activator project, SAR follow-up (AID 493251). The assay is classed as functional, cell-based. Conditions: Homo sapiens.
A short description of assay [5]: HEK-293T cell viability reduction – luminescence, B-cell screen hits, cytotoxicity control for BCR NF-kB inhibitor project, dose response (AID 489021).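 Note: HEK-293T cells carrying an NF-kB luciferase reporter; cells exposed to compound for about 14 hours before viability readout.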 The assay is classed as functional, cell-based.
The test system of assay [6] is Candida albicans. Kind of assay: C. albicans growth inhibition with fluconazole – CaCi-2 strain, Alamar Blue, dry powder, set 4, dose response (AID 488943). It is filed as functional, organism-based.
Assay [7] relates to Candida albicans. Kind of assay: fluconazole-resistant Candida strain growth inhibitors – CaCi-8 strain, dry powder, set 4, dose response (AID 488950). The assay is classed as functional, organism-based.
For assay [8], the system named is Candida albicans. As to the kind of experiment: resistant Candida growth with fluconazole co-treatment – CaCi-8 strain, Alamar Blue, dry powder, set 2, dose response (AID 488909). The assay is classed as functional, organism-based. (Alamar Blue is a resazurin reagent that responds to reducing activity.)
The test system of assay [9] is Candida albicans. Kind of assay: single-agent antifungal toxicity in C. albicans – CaCi-2 strain, Alamar Blue, dry powder, set 2, counter-screen for antifungal drug resistance project, dose response (AID 488893). It is filed as functional, organism-based.
Assay [10] deals with Candida albicans. Kind of assay: Candida growth reduction in fluconazole presence – CaCi-2 strain, Alamar Blue, dry powder, set 2, antifungal resistance reversal project, dose response (AID 488930). The assay is classed as functional, organism-based.
The test system of assay [11] is Streptococcus. Kind of assay: GAS UMAA2166 growth inhibition – luminescence, BacTiterGlo, counter-screen for streptokinase expression inhibitor project, dose response (AID 1915).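 Note: potency for reduction of bacterial viability or growth.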 It is filed as functional, organism-based. Background: Counterscreens check selectivity or assay interference.
Assay [12] can be described thus: THP-1 cell cytotoxicity, dose response, cytotoxicity control for non-replicating M. tuberculosis project (AID 489025). It is filed as functional.
Assay [13] deals with Cysteine protease ATG4B (Homo sapiens, UniProt Q9Y4P1). The assay is classed as functional.
Cysteine protease ATG4B, sequence (Q9Y4P1 whole entry): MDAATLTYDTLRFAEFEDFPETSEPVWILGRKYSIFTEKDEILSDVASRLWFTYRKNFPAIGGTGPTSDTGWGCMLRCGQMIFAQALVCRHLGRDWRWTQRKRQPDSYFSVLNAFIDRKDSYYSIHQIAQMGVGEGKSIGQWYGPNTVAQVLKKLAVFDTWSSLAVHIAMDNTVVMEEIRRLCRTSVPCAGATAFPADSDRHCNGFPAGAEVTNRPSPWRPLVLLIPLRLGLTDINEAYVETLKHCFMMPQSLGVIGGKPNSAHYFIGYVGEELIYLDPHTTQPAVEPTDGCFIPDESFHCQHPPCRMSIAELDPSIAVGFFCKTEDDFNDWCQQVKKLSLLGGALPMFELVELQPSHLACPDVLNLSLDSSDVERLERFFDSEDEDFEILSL
For assay [14], the target named is Phospholipase A2 (Homo sapiens, UniProt P04054). It is filed as functional.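 Note: confirmatory dose-response counterscreen on phospholipase A2, testing hits that came from an ultra-high-throughput screen for ATG4B inhibitors.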
Phospholipase A2, sequence (P04054 whole entry): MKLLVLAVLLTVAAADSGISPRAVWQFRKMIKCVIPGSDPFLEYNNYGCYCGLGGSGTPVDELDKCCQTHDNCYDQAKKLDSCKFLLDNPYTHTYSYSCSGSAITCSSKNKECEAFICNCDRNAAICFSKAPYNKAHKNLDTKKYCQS
In assay [15] the test system is Streptococcus sp. 'group A'. Kind of assay: Streptococcus pyogenes SK(-)GAS viability under kanamycin – luminescence, BacTiterGlo, confirmation, counter-screen for streptokinase expression inhibitor project, dose response (AID 1900). The assay is classed as functional, organism-based.
Assay [16] has as its target T2, Aminopeptidase N (Plasmodium falciparum FcB1/Columbia, UniProt O96935).
T2 sequence (O96935 whole entry): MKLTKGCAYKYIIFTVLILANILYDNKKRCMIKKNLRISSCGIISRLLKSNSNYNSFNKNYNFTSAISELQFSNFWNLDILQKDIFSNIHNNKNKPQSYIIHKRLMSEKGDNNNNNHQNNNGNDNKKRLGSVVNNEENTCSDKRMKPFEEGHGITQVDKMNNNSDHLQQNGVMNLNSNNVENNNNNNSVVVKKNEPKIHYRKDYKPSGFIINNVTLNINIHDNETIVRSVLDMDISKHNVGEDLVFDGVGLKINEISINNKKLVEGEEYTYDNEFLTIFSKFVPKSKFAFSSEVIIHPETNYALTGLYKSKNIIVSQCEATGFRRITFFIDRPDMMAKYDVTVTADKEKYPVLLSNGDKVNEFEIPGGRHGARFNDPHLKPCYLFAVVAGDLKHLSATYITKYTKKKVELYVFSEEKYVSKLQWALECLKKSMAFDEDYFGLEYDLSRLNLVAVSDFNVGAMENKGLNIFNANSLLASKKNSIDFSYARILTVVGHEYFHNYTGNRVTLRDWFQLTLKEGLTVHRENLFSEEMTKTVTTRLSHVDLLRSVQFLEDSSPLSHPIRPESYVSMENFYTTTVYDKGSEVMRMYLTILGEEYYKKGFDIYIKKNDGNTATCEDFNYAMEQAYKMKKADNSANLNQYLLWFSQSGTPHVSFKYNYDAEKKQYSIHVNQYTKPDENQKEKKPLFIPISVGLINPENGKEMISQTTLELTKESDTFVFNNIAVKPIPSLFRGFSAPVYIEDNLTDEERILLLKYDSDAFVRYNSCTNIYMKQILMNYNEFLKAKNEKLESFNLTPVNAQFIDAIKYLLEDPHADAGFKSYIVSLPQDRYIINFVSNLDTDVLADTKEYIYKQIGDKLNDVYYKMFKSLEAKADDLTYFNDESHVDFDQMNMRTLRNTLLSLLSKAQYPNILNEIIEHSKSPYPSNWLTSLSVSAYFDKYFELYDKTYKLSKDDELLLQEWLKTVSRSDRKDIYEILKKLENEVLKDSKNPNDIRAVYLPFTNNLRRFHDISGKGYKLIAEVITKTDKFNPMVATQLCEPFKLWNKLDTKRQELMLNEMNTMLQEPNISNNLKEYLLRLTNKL
Kind of assay: malaria alanyl aminopeptidase activity blockers – biochemical, fluorogenic H-Leu-NHMec substrate, 1536-well (AID 1445). Also noted: species or system Plasmodium falciparum 3D7, 3D7.

In assay [17] the target is Bcl-2-like protein 1 (Homo sapiens, UniProt Q07817). Kind of assay: blockers of BCLXL peptide binding – biochemical, fluorescence polarization, 1536-well, selectivity assay for MCL1 inhibitor project, dose response (AID 2218).
Bcl-2-like protein 1, sequence (Q07817 whole entry): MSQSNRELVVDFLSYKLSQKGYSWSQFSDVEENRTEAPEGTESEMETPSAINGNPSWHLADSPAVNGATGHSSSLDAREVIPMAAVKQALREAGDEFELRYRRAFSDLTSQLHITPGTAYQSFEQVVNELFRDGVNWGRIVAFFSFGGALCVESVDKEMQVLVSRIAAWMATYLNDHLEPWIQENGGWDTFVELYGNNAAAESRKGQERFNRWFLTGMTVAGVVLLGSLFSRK
The target in assay [18] is T3, Streptokinase A (Streptococcus pyogenes serotype M1, UniProt P10520).
T3 sequence (P10520 whole entry): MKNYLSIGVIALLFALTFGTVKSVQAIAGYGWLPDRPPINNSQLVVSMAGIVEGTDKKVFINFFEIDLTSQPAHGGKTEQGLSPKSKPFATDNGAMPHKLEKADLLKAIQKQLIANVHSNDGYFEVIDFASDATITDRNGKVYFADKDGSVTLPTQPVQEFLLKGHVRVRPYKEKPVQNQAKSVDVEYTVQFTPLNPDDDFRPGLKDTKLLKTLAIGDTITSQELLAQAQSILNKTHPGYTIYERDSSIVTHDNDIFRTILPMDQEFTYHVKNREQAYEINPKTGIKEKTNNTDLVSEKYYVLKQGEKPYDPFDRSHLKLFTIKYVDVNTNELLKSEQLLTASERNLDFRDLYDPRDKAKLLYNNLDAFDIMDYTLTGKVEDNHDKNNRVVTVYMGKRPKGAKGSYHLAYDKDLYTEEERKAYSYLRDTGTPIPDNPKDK
As to the kind of experiment: viability-normalized secreted streptokinase activity reduction – plasminogen activation absorbance, OD405, dose response (AID 1914).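 Note: secreted streptokinase activity via plasminogen activation per viability signal from cell pellet.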 It is filed as functional, Streptococcus pyogenes M1 GAS.

A short description of assay [19]: viability of uninfected HEp-2 cells – cell-based, HTS, cytotoxicity control for RSV inhibitor project, dose response (AID 2410). The assay is classed as functional. Conditions: human respiratory syncytial virus.
The target of assay [20] is Estrogen receptor beta (Homo sapiens, UniProt Q92731). As to the kind of experiment: blockers of SRC-3 recruitment to ERβ – biochemical, ELISA, streptavidin-HRP readout, orthogonal assay, confirmation (AID 1060).
Estrogen receptor beta, sequence (Q92731 whole entry): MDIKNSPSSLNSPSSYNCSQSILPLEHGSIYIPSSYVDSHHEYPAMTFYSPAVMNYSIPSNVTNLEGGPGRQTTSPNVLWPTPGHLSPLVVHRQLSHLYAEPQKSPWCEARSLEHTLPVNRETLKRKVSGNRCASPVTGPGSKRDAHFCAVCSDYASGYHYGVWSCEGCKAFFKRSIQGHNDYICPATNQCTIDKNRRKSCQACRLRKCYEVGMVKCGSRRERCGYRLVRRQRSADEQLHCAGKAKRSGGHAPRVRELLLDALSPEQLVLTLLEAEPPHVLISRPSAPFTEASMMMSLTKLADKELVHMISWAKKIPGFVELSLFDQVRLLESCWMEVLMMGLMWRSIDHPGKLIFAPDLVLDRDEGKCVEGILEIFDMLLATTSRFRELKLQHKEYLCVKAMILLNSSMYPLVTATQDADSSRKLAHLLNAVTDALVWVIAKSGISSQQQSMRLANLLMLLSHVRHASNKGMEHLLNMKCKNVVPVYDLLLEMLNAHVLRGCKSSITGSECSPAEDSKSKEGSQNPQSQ
Assay [21] is described as follows: Vero E6 cell cytotoxicity, dose response, cytotoxicity control for non-replicating M. tuberculosis project, secondary assay (AID 492998). The assay is classed as functional, VeroE6. Conditions: Vero C1008.
Assay [22] has as its target T4, Induced myeloid leukemia cell differentiation protein Mcl-1 (Homo sapiens, UniProt Q07820). Kind of assay: blockers of MCL1 binding to BIM peptide – biochemical, fluorescence polarization, BIM-BH3 peptide, 1536-well, dose response (AID 2217).
The target of assay [23] is T4, Induced myeloid leukemia cell differentiation protein Mcl-1. The assay is classed as functional.

The structures appear in SMILES notation. The source made the active and inactive calls.

T1 sequence (P49327 whole entry): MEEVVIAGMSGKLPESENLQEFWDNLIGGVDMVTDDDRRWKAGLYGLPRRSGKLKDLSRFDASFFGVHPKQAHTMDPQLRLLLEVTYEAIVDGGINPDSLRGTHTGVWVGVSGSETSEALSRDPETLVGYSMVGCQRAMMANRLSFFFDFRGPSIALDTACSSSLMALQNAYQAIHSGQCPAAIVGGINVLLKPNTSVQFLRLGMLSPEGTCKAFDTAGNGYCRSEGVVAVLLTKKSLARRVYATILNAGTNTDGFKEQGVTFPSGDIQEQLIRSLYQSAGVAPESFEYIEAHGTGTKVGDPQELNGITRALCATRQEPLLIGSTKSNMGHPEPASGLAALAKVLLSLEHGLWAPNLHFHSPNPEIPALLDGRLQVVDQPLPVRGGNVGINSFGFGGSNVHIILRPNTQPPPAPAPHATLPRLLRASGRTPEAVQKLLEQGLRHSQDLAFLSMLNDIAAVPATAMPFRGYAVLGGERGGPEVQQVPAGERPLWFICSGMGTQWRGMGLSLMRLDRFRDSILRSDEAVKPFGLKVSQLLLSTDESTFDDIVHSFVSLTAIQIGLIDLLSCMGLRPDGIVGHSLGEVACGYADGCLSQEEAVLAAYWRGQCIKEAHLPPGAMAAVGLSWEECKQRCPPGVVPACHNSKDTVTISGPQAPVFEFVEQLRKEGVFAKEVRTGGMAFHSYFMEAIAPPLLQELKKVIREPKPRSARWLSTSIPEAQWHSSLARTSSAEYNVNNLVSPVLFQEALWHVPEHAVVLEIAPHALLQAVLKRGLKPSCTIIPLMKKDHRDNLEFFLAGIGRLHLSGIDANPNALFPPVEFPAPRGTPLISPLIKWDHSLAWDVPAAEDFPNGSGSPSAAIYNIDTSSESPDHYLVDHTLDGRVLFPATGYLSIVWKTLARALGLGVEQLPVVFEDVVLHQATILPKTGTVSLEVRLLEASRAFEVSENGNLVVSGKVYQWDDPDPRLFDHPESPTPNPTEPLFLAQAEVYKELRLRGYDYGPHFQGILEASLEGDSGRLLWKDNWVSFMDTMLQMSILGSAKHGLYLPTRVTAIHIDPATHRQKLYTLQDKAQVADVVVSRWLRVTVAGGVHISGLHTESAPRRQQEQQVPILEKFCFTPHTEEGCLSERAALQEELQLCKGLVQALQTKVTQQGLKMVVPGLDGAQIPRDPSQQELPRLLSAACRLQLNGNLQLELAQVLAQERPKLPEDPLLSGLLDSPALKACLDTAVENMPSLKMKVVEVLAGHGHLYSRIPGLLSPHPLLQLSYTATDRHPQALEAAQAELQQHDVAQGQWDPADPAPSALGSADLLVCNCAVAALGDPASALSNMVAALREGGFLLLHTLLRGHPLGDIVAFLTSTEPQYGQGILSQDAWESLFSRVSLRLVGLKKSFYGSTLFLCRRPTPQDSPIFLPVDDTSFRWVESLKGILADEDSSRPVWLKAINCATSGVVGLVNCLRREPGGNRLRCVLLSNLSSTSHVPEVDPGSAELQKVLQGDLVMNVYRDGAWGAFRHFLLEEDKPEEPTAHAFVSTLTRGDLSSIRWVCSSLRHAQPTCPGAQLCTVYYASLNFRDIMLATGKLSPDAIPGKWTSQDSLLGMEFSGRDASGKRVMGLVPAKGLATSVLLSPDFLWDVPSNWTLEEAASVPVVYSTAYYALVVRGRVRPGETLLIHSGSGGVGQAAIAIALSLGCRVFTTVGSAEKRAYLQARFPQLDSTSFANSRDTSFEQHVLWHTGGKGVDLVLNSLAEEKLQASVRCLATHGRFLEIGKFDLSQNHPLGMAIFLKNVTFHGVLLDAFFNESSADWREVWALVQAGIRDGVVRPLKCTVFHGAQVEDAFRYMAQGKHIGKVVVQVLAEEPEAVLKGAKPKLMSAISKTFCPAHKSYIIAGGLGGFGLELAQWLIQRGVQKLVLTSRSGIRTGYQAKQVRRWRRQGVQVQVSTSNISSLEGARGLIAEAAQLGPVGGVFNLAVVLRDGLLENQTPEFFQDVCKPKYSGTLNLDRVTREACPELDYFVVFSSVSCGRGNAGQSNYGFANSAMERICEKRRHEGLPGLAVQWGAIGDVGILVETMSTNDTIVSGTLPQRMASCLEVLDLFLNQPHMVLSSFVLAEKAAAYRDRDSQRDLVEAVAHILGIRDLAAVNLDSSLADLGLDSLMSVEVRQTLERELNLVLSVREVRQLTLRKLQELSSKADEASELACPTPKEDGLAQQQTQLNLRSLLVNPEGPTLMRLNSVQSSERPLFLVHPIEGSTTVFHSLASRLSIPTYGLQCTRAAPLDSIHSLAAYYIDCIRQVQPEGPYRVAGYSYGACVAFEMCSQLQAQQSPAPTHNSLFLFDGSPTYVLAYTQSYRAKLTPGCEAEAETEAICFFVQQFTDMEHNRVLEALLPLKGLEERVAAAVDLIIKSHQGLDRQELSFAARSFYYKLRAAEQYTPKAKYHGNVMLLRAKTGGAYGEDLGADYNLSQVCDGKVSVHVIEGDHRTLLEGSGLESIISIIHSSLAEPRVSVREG
T4 sequence (Q07820 whole entry): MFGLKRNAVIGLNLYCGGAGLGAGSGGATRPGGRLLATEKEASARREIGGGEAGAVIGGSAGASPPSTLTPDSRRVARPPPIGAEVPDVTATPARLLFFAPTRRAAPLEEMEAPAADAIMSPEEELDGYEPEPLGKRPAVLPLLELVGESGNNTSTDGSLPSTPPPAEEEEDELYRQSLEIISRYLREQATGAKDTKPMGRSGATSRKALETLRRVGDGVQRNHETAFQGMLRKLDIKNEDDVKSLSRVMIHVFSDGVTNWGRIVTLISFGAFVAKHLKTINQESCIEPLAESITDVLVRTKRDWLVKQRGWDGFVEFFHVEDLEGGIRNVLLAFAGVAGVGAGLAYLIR

For the molecule `N#Cc1cc(-c2ccccc2)nc(Oc2ccc(Cl)cc2)n1`, the EC50 in assay [1] is 1.25 µM (active). Further, the IC50 was 9.1 µM (active) in assay [2] and 7.97 µM (active) in [3].

With `CCc1ccc(-c2nc(CSCC(=O)NC3CC3)c(C)o2)cc1`, the IC50 in [4] and in assay [5] was > 80 µM (inactive) in each case.

`COc1ccc(C(=O)N2CCN(c3ccnc4cc(Cl)ccc34)CC2)cc1`: the half-maximal activity concentration (AC50) in [6] is 4.15 µM (active); in assay [7], 5.38 µM (active); in assay [8], 10.2 µM (active); in [9], 32.2 µM (active); in [10] it was 4.25 µM (active).

For `C/C(=N/NC(=O)c1cc2ccccc2cc1O)C1C(=O)c2ccccc2C1=O`, the EC50 was 10.1 µM (active) in assay [11], 1.03 µM (active) in assay [15] and > 150 µM (not active) in assay [18]. Further, the CC50 in [12] was 17.7 µM (active); in assay [19], > 50 µM (active); in [21], 16.7 µM (active). The half-maximal inhibitory concentration (IC50) in [13] was 5.43 µM (active); in [14], 4.87 µM (active); in assay [16], 12 µM (active); in assay [17], > 109 µM (not active); in assay [20] it was 0.0588 µM (not active); in [22], > 109 µM (not active). In [23], the IC50 was 2.11 µM (active).
